Laboratory results taken from paper PMC9926234, “Iterative computational design and crystallographic screening identifies potent inhibitors targeting the Nsp3 macrodomain of SARS-CoV-2” (Proceedings of the National Academy of Sciences of the …, 2023).
“And” between values parts separate entries of the source, which are not always exact repeats. Identical values can stand only once. Like-named read-outs stand apart in the source and are kept apart here.

Experiments:
SARS-CoV-2 NSP3 Mac1 [1] = target: T1, SARS-CoV-2 NSP3 Mac1 (Severe acute respiratory syndrome coronavirus 2, UniProt P0DTD1); design: contains a conserved macrodomain enzyme (Mac1); Differential scanning fluorimetry of Mac1, maximum thermal upshift; conditions: maximum shift over tested concentrations; binder
SARS-CoV-2 NSP3 Mac1 [2] = target: T1, SARS-CoV-2 NSP3 Mac1; format: binding; conditions: for Refined occupancy: ligand occupancy after refinement (phenix.refine); for HIT*: true hit = binding in crystallographic soaking or the HTRF-based binding assay
SARS-CoV-2 NSP3 Mac1 [3] = target: T1, SARS-CoV-2 NSP3 Mac1; format: binding; design: contains a conserved macrodomain enzyme (Mac1); conditions: for Spearman est (compound concentration vs apparent Tm): DSF dose responsiveness, 1 µM nsp3 mac1, adj p given; for DSF max dTma: maximal thermal upshift
Summary of the method: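 Differential scanning fluorimetry using 5 µM Fluorescent Yellow dye in place of SYPRO Orange. Compounds run in triplicate at seven two-fold dilutions from 1,000 or 100 μM, with ΔTma taken against a DMSO control in the same plate region. Dose-response significance assessed by Spearman's coefficient between concentration and ΔTma.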

SARS-CoV-2 NSP3 Mac1 [4] = target: T1, SARS-CoV-2 NSP3 Mac1; assay: biochemical; format: binding; conditions: for IC50: read-out: IC50; for Ki: read-out: Ki***
SARS-CoV-2 NSP3 Mac1 [5] = assay: Overall hit call (binding in crystallographic soaking or the HTRF-based binding assay)
Excerpt: Supplement pnas.2212931120.sd01.xlsx, sheet "Compound Summary" | column: HIT*

[6] = PanDDA event map, 1 minus background density correction, crystal soaking of Mac1
[7] = ligand modeled from this dataset, compound concentration 100 mM
[8] = Ki estimation from HTRF-derived IC50, Cheng-Prusoff, peptide 400nM, Kd 2.68µM
[9] = PanDDA 1-BDC value of the event, crystal soak, compound concentration 100 mM, per dataset
[10] = crystal soak, compound concentration 100 mM, per dataset
[11] = HTRF ADPr-conjugated peptide displacement
[12] = PanDDA event map background density correction, crystal soak, compound concentration 100 mM
[13] = ligand modeled in the crystal structure, crystal soak, compound concentration 100 mM

CC1(C)CCC(C(=O)O)CN1C(=O)c1ncnc2[nH]ccc12 (stereo not shown) [F2804, FRESH00012962804]
DSF max dTma (SARS-CoV-2 NSP3 Mac1 [1]): 0.62 °C

CC1(C(=O)O)CCN(C(=O)Cc2c[nH]c3nccc(Cl)c23)C1 (stereo not shown) [F4848, FRESH00014134848]
DSF max dTma (SARS-CoV-2 NSP3 Mac1 [1]): 0.07 °C

Cc1noc(CC2CCCN(c3ncnc4[nH]c5cc(F)ccc5c34)C2)n1 (stereo not shown) [LL1_0005]
1-BDC (SARS-CoV-2 NSP3 Mac1 [2]; [6]): 0.11
Refined occupancy (SARS-CoV-2 NSP3 Mac1 [2]; crystal soaking of Mac1): 22
HIT* (SARS-CoV-2 NSP3 Mac1 [2]): Y
Spearman est (compound concentration vs apparent Tm) (SARS-CoV-2 NSP3 Mac1 [3]): 0.01
DSF max dTma (SARS-CoV-2 NSP3 Mac1 [3]): 0.6 ˚C
DSF max dTma (SARS-CoV-2 NSP3 Mac1 [1]): 0.6 °C

O=c1[nH]nc(C2CCCN(c3ncnc4[nH]c5cc(F)ccc5c34)C2)o1 (stereo not shown) [LL1_0017]
1-BDC (PanDDA) (SARS-CoV-2 NSP3 Mac1 [2]; [6]): 0.09
Modeled? (SARS-CoV-2 NSP3 Mac1 [2]; [7]): TRUE
Refined occupancy (SARS-CoV-2 NSP3 Mac1 [2]; crystal soaking of Mac1): 18
HIT* (SARS-CoV-2 NSP3 Mac1 [2]): Y
Spearman est (compound concentration vs apparent Tm) (SARS-CoV-2 NSP3 Mac1 [3]): 0.18
DSF max dTma (SARS-CoV-2 NSP3 Mac1 [3]): 0.5 ˚C
DSF max dTma (SARS-CoV-2 NSP3 Mac1 [1]): 0.5 °C

O=C(O)CCC1CCCN(c2ncnc3[nH]c4cc(F)ccc4c23)C1 (stereo not shown) [LL1_0018]
IC50 (SARS-CoV-2 NSP3 Mac1 [4]; HTRF): 25.8 µM
Ki (SARS-CoV-2 NSP3 Mac1 [4]; [8]): 22.4 µM
1-BDC (PanDDA) (SARS-CoV-2 NSP3 Mac1 [2]; [6]): 0.1
Modeled? (SARS-CoV-2 NSP3 Mac1 [2]; [7]): TRUE
Refined occupancy (SARS-CoV-2 NSP3 Mac1 [2]; crystal soaking of Mac1): 20
HIT* (SARS-CoV-2 NSP3 Mac1 [2]): Y
Spearman est (compound concentration vs apparent Tm) (SARS-CoV-2 NSP3 Mac1 [3]): 0.96
DSF max dTma (SARS-CoV-2 NSP3 Mac1 [3]): 2.71 ˚C
DSF max dTma (SARS-CoV-2 NSP3 Mac1 [1]): 2.71 °C

O=C(O)C1(F)CN(c2cc(Nc3ccccc3)ncn2)CC12CCC2 (stereo not shown) [LL1_0025]
IC50 (SARS-CoV-2 NSP3 Mac1 [4]; HTRF): 121 µM
Ki (SARS-CoV-2 NSP3 Mac1 [4]; [8]): 106 µM
1-BDC (SARS-CoV-2 NSP3 Mac1 [2]; [9]): 0.12
1-BDC (PanDDA) (SARS-CoV-2 NSP3 Mac1 [2]; [6]): 0.14
PanDDA hit? (SARS-CoV-2 NSP3 Mac1 [2]; [10]): TRUE
Modeled? (SARS-CoV-2 NSP3 Mac1 [2]; [7]): TRUE
Refined occupancy (SARS-CoV-2 NSP3 Mac1 [2]; crystal soaking of Mac1): 28
HIT* (SARS-CoV-2 NSP3 Mac1 [2]): Y
Spearman est (compound concentration vs apparent Tm) (SARS-CoV-2 NSP3 Mac1 [3]): 0.71
DSF max dTma (SARS-CoV-2 NSP3 Mac1 [3]): 1.36 ˚C
DSF max dTma (SARS-CoV-2 NSP3 Mac1 [1]): 1.36 °C

CS(=O)(=O)C1CCCN(c2ncnc3[nH]c4cc(F)ccc4c23)C1 (stereo not shown) [LL1_0027]
1-BDC (SARS-CoV-2 NSP3 Mac1 [2]; [9]): 0.09
1-BDC (SARS-CoV-2 NSP3 Mac1 [2]; [6]): 0.06
PanDDA hit? (SARS-CoV-2 NSP3 Mac1 [2]; [10]): TRUE
Modeled? (SARS-CoV-2 NSP3 Mac1 [2]; ligand modeled from this dataset, compound concentration 100 mM, Echo dispense volume 40 or 80 nl): TRUE
Refined occupancy (SARS-CoV-2 NSP3 Mac1 [2]; crystal soaking of Mac1): 12
HIT* (SARS-CoV-2 NSP3 Mac1 [2]): Y
Spearman est (compound concentration vs apparent Tm) (SARS-CoV-2 NSP3 Mac1 [3]): 0.41
DSF max dTma (SARS-CoV-2 NSP3 Mac1 [3]): 0.8 ˚C
DSF max dTma (SARS-CoV-2 NSP3 Mac1 [1]): 0.8 °C

CC1CC(C(=O)O)N1C(=O)c1cc(O)nc2ccc(F)cc12.O=C(O)C(F)(F)F (stereo not shown) [R0658, REAL300007260658]
DSF max dTma (SARS-CoV-2 NSP3 Mac1 [1]): 0.37 °C

CC1C(C(=O)O)CCCN1S(=O)(=O)c1c[nH]c2ncc(Cl)cc12 (stereo not shown) [R3575, REAL300016493575]
DSF max dTma (SARS-CoV-2 NSP3 Mac1 [1]): 0.15 °C

Nc1ncnc(N2CCCC(CCC(=O)O)C2)c1Cl (stereo not shown) [R6134, REAL250003296134]
DSF max dTma (SARS-CoV-2 NSP3 Mac1 [1]): 0.34 °C

Cc1nnc(CNc2cnc(N)c(Cl)n2)n1C1CC1 [Z1964, ZINC000893101964]
DSF max dTma (SARS-CoV-2 NSP3 Mac1 [1]): 0.12 °C

O=C(Cc1ccc(-n2cccn2)cc1)OCC1CCCNC1=O (stereo not shown) [Z5505, ZINC000835985505]
DSF max dTma (SARS-CoV-2 NSP3 Mac1 [1]): 0.16 °C

c1csc(CC2CCN(c3ncnc4[nH]ccc34)C2)n1 (stereo not shown) [Z6891, ZINC000897286891]
DSF max dTma (SARS-CoV-2 NSP3 Mac1 [1]): 0.15 °C

OCc1cn(C2CCCN(c3ncnc4[nH]ccc34)C2)nn1 (stereo not shown) [Z7864, ZINC000292637864]
DSF max dTma (SARS-CoV-2 NSP3 Mac1 [1]): 0.32 °C

Cc1nnc2n1CC(C(=O)O)N(C(=O)c1ccc(NC(=O)NC3CC3)cc1)C2 (stereo not shown) [Z8539_0037, 8539_0037]
DSF max dTma (SARS-CoV-2 NSP3 Mac1 [1]): 2.36 °C

NC(=O)Nc1ccc(C(=O)NC2c3cccc(O)c3CC2C(=O)O)cc1 (stereo not shown) [Z8539_0041, 8539_0041]
DSF max dTma (SARS-CoV-2 NSP3 Mac1 [1]): 6 °C

O=C(NCc1c(C(=O)O)[nH]c2ccccc12)c1ccc2[nH]cnc2c1 [Z8539_2005]
IC50 (SARS-CoV-2 NSP3 Mac1 [4]; [11]): 24.5 µM
Ki (SARS-CoV-2 NSP3 Mac1 [4]): 21.3 µM
1-BDC (SARS-CoV-2 NSP3 Mac1 [2]; [12]): 0.21 and 0.19
1-BDC (PanDDA) (SARS-CoV-2 NSP3 Mac1 [2]; [6]): 0.19
1-BDC (SARS-CoV-2 NSP3 Mac1 [2]; PanDDA event map, crystal soak, Compound_concentration 100 mM, Echo_dispense_volume 40 nl): 0.24
PanDDA hit? (SARS-CoV-2 NSP3 Mac1 [2]; crystal soak, Compound_concentration 100 mM, Echo_dispense_volume 40 nl, PanDDA run (background map) dmso_34, nohits_35 or nohits_62): TRUE
Modeled? (SARS-CoV-2 NSP3 Mac1 [2]; [13]): TRUE
Refined occupancy (SARS-CoV-2 NSP3 Mac1 [2]; crystal soaking of Mac1): 38
HIT* (SARS-CoV-2 NSP3 Mac1 [5]): Y

O=C(NCc1c(C(=O)O)[nH]c2ccccc12)c1ccc2[nH]c(O)nc2c1 [Z8539_2006]
IC50 (SARS-CoV-2 NSP3 Mac1 [4]; [11]): 15.8 µM
Ki (SARS-CoV-2 NSP3 Mac1 [4]): 13.7 µM
1-BDC (SARS-CoV-2 NSP3 Mac1 [2]; [12]): 0.05
1-BDC (PanDDA) (SARS-CoV-2 NSP3 Mac1 [2]; [6]): 0.05
Modeled? (SARS-CoV-2 NSP3 Mac1 [2]; [13]): TRUE
Refined occupancy (SARS-CoV-2 NSP3 Mac1 [2]; crystal soaking of Mac1): 10
HIT* (SARS-CoV-2 NSP3 Mac1 [5]): Y

O=C1NCCCC1Nc1ncnc(-c2ccccc2)n1 (stereo not shown) [Z9020, ZINC000884519020]
DSF max dTma (SARS-CoV-2 NSP3 Mac1 [1]): 1.01 °C
